Measured values from patent publication US6525059B1, “Substituted pyrazoles as p38 kinase inhibitors” (G. D. Searle & Company, priority 1998, dated 2003).
Structures can show the parent of a compound that is named as a salt. Where two headings read alike, the source gives them in different places.

How the values were obtained:
human TNF = test: TNF inhibition: human whole blood assay; type: cell-based; details: Homo sapiens
Procedure: Human peripheral blood is obtained in heparinized tubes. A 190 μL aliquot of blood is placed in each well of a 96 well u-bottom plate. […] After one hour of incubation at 37° C., […] of lipopolysaccharide (Salmonella typhosa, Sigma) in phosphate buffered saline is added resulting in a final concentration of […]. After four to five hours of incubation at 37° C., the supernatants are harvested and assayed at 1:10 or 1:20 dilutions for human TNF using ELISA.

TNF-α = test: Rat assay: LPS-challenged rats, serum TNF-α by ELISA; type: in vivo; details: for inhibition in vivo at 5 mg/kg / inhibition in vivo at 1 mg/kg: Rattus norvegicus, po; for ratLPS/% Inh @20.0 (mg/kg): 20.0 mg/kg oral gavage; for inhibition in vivo at 1 mg/kg: 1.0 mg/kg oral gavage, read-out: ratLPS/% Inh @1.0 (mg/kg)
human p38 kinase alpha = molecular target: T1, human p38 kinase alpha (Homo sapiens, UniProt Q16539); test: p38 kinase in vitro assay, phosphorylation of biotinylated PHAS-I with gamma 32P-ATP; type: biochemical
T1 construct: The coding region of the human p38a cDNA was obtained by PCR-amplification from RNA isolated from the human monocyte cell line THP.1; GST (N); made in house; host or cells: E. coli DH10B
Method in brief: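 MKK6-activated human p38α phosphorylates biotinylated PHAS-I with γ-32P-ATP in 25 mM HEPES pH 7.5, 10 mM Mg acetate, 50 μM unlabeled ATP, 1% DMSO, 30 °C for 1 h or overnight. Compounds at 100–0.001 μM (10-fold steps, triplicate); substrate captured on streptavidin filter plates and counted by scintillation.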

[1] = TNF production, LPS-stimulated human whole blood, read-out: Human Whole Blood IC50
[2] = 5 mpk oral gavage, 4 h before LPS challenge, read-out: Rat LPS Model % Inhibition @ dose @ predose time
[3] = read-out: P38 alpha kinase IC50
[4] = TNF production, LPS-stimulated human whole blood, read-out: HWB IC50
[5] = 5.0 mg/kg oral gavage, 4 hours before LPS challenge, read-out: ratLPS/% Inh @5.0 (mg/kg)

T1 sequence (Q16539 whole entry): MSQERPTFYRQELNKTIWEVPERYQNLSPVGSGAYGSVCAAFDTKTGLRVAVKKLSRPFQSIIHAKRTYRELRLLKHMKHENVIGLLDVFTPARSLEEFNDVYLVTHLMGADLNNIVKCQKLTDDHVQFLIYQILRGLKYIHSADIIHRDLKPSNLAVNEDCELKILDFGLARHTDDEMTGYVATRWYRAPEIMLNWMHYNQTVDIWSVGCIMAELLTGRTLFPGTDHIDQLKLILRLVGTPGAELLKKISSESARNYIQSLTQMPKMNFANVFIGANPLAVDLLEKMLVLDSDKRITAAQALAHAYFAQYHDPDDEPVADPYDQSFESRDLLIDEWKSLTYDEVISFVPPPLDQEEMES

## COCC(=O)N1CCC(c2[nH]nc(-c3ccc(F)cc3)c2-c2ccncc2)CC1 [Example C-112]
Human TNF; [1]
  IC50: 6.36 µM
TNF-α; [2]
  inhibition in vivo at 5 mg/kg: 89%
Human p38 kinase alpha; [3]
  IC50: 540 nM

## CC(=O)N1CCC(c2[nH]nc(-c3ccc(F)cc3)c2-c2ccncc2)CC1 [Example C-113]
Human TNF; [1]
  IC50: 2.72 µM
TNF-α; [2]
  inhibition in vivo at 5 mg/kg: 77%
Human p38 kinase alpha; [3]
  IC50: 82 nM

## COCc1[nH]nc(-c2ccc(Cl)cc2)c1-c1ccncc1 [Example C-115, 5-(METHOXYMETHYL)-4-(4-PYRIDYL)-3-(4-CHLOROPHENYL)PYRAZOLE]
Human TNF; [1]
  IC50: 10.2 µM
TNF-α; [2]
  inhibition in vivo at 5 mg/kg: 39%
Human p38 kinase alpha; [3]
  IC50: 42 nM

## Nc1ccc(Cc2[nH]nc(-c3ccc(Cl)cc3)c2-c2ccncc2)cc1 [Example C-116, 5-(4-AMINOBENZYL)-4-(4-PYRIDYL)-3-(4-CHLOROPHENYL)PYRAZOLE]
Human TNF; [1]
  IC50: 0.5 µM
TNF-α; [2]
  inhibition in vivo at 5 mg/kg: 53%
Human p38 kinase alpha; [3]
  IC50: 429 nM

## CN(C)c1ccc(Cc2[nH]nc(-c3ccc(Cl)cc3)c2-c2ccncc2)cc1 [Example C-117]
Human TNF; [1]
  IC50: 7.26 µM
TNF-α; [2]
  inhibition in vivo at 5 mg/kg: 71%
Human p38 kinase alpha; [3]
  IC50: 3420 nM

## CC(=O)Nc1ccc(Cc2[nH]nc(-c3ccc(Cl)cc3)c2-c2ccncc2)cc1 [Example C-118, 5-[4-(N-ACETYL)AMINOBENZYL]-4-(4-PYRIDYL)-3-(4-CHLOROPHENYL)PYRAZOLE]
Human TNF; [1]
  IC50: > 25 µM
TNF-α; [2]
  inhibition in vivo at 5 mg/kg: 39%
Human p38 kinase alpha; [3]
  IC50: 298 nM

## CC(C)(N)C(=O)NCc1[nH]nc(-c2ccc(F)cc2)c1-c1ccncc1 [Example C-120]
Human TNF; read-out: Human Whole Blood IC50, μM
  IC50: 18.6 µM
TNF-α; read-out: Rat LPS Model % Inhibition @ dose @ predose time
  inhibition in vivo at 5 mg/kg: 26%
Human p38 kinase alpha; [3]
  IC50: 700 nM

## CN1CCC[C@H]1c1[nH]nc(-c2ccc(F)cc2)c1-c1ccncc1 [Example C-124, (S)-5-(N-METHYL-2-PYROLIDINYL)-4-(4-PYRIDYL)-3-(4-FLUOROPHENYL)PYRAZOLE]
Human TNF; [1]
  IC50: 4.56 µM
TNF-α; [2]
  inhibition in vivo at 5 mg/kg: 51%
Human p38 kinase alpha; [3]
  IC50: 170 nM

## CN1CCC[C@@H]1c1[nH]nc(-c2ccc(F)cc2)c1-c1ccncc1 [Example C-126, (R)-5-(N-METHYL-2-PYROLIDINYL)-4-(4-PYRIDYL)-3-(4-FLUOROPHENYL)PYRAZOLE]
Human TNF; [1]
  IC50: > 25 µM
TNF-α; [2]
  inhibition in vivo at 5 mg/kg: 6%
Human p38 kinase alpha; [3]
  IC50: 710 nM

## CN1CCC[C@@H](c2[nH]nc(-c3ccc(F)cc3)c2-c2ccncc2)C1 [Example C-128]
Human TNF; [1]
  IC50: 2.22 µM
TNF-α; [2]
  inhibition in vivo at 5 mg/kg: 63%
Human p38 kinase alpha; [3]
  IC50: 90 nM

## CC(C)(O)CCCc1[nH]nc(-c2ccc(F)cc2)c1-c1ccncc1 [Example C-133]
Human TNF; [1]
  IC50: 4.54 µM
TNF-α; [2]
  inhibition in vivo at 5 mg/kg: 55%
Human p38 kinase alpha; [3]
  IC50: 160 nM

## CC(=O)N1CCCC(c2[nH]nc(-c3ccc(F)cc3)c2-c2ccncc2)C1 (centres unmarked) [Example C-138]
Human TNF; [1]
  IC50: 0.68 µM
TNF-α; [2]
  inhibition in vivo at 5 mg/kg: 26%
Human p38 kinase alpha; [3]
  IC50: 280 nM

## COCC(=O)N1CCCC(c2[nH]nc(-c3ccc(F)cc3)c2-c2ccncc2)C1 (centres unmarked) [Example C-139]
Human TNF; [1]
  IC50: 3.66 µM
TNF-α; [2]
  inhibition in vivo at 5 mg/kg: 46%
Human p38 kinase alpha; [3]
  IC50: 200 nM

## COCC(=O)N1CCC(c2[nH]nc(-c3ccc(Cl)cc3)c2-c2ccncn2)CC1 [Example D-3, N-(2-Methoxyacetyl)-5-(4-piperidyl)-4-(4-pyrimidyl)-3-(4-chlorophenyl)pyrazole (fumarate salt)]
Human TNF; [4]
  IC50: 0.46 µM
TNF-α; 4 hours before LPS challenge
  ratLPS/% Inh @20.0 (mg/kg): 91.0%
  inhibition in vivo at 1 mg/kg: 69%
TNF-α; [5]
  inhibition in vivo at 5 mg/kg: 88%
Human p38 kinase alpha; read-out: p38 alpha IC50
  IC50: 95 nM

## CC(C)(O)C(=O)N1CCC(c2[nH]nc(-c3ccc(Cl)cc3)c2-c2ccncn2)CC1 [Example D-4, hydrochloride]
Human TNF; [4]
  IC50: 1.55 µM
TNF-α; 4 hours before LPS challenge
  ratLPS/% Inh @20.0 (mg/kg): 99.0%
  inhibition in vivo at 1 mg/kg: 42.3%
TNF-α; [5]
  inhibition in vivo at 5 mg/kg: 83%
Human p38 kinase alpha; read-out: p38 alpha IC50
  IC50: 910 nM

## C[C@H](O)C(=O)N1CCC(c2[nH]nc(-c3ccc(Cl)cc3)c2-c2ccncn2)CC1 [Example D-5, hydrochloride]
Human TNF; [4]
  IC50: 4.09 µM
TNF-α; 4 hours before LPS challenge
  ratLPS/% Inh @20.0 (mg/kg): 83.0%
  inhibition in vivo at 1 mg/kg: 65%
TNF-α; [5]
  inhibition in vivo at 5 mg/kg: 78.5%
Human p38 kinase alpha; read-out: p38 alpha IC50
  IC50: 140 nM

## C[C@@H](O)C(=O)N1CCC(c2[nH]nc(-c3ccc(Cl)cc3)c2-c2ccncn2)CC1 [Example D-6, hydrochloride]
Human TNF; [4]
  IC50: 1.33 µM
TNF-α; 4 hours before LPS challenge
  ratLPS/% Inh @20.0 (mg/kg): 100%
  inhibition in vivo at 1 mg/kg: 82%
TNF-α; [5]
  inhibition in vivo at 5 mg/kg: 96%
Human p38 kinase alpha; read-out: p38 alpha IC50
  IC50: 83 nM
